Measured values from patent US6787315B2, “Methods for identifying ligand binding sites in a biomolecule” (priority 2001, dated 2004).

Tested on: 16S RNA versus modified 16S RNA (5IU1495)
Assay: Dissociation rate of binary ligand complexes versus relative energy (capillary exit-skimmer voltage), ESI-FT-ICR MS
Assay type: binding, E. coli
Conditions: Example 8: 2-deoxystreptamine 100 μM, RNAs 2.5 μM each
Protocol: The following examples illustrate preferred embodiments of the present invention using mass spectrometry. Experiments were performed using a 7.0 Tesla Fourier transform ion cyclotron resonance (FT-ICR) mass spectrometer with an electrospray ionization source operating in the negative mode. A −3000 V difference was employed between the spray tip and the inlet capillary to generate the electrospray. Samples were introduced at a flow rate of 1.5 uL/min using a Harvard syringe pump and a 50 uL glass syringe. The desolvation of the electrospray droplets was aided by a flow of countercurrent gas at 1 L/min. Ions were accumulated for 1.0 sec in an intermediate hexapole ion storage region at 1.0×10^−5 mbar. Following transfer to the FT-ICR analysis cell, the image current was measured over a mass range of 500-4000 m/z. Typically, a total of 32 transients containing 512 kbytes were summed prior to Fourier transformation. […]
An aqueous solution containing 50 mM ammonium acetate buffer (pH 7.0), 33% isopropyl alcohol, 2-deoxystreptamine (100 μM), 16S RNA (2.5 μM) and a modified 16S RNA (2.5 μM) was prepared. […] The peaks were integrated and ion abundances determined for each of the separate runs. Fractions of 16S+2-DOS and 5IU1495+2-DOS complexes were determined and plotted according to relative energy as depicted in FIG. 6. […]

N[C@@H]1C[C@H](N)[C@@H](O)C(O)[C@H]1O (some centres unmarked) [2-deoxystreptamine]
Difference in dissociation rate (slope) between the 16S and 5IU1495 systems, first region (1 to 2 relative energy units (FIG. 6)): about 25% | Dissociation rate (slope) of 16S versus 5IU1495 systems, higher energy region (2 to 4 relative energy units (FIG. 6)): substantially equal
